Experiment: Estimation of plasma levels after ip application (UHPLC-MS/MS)
Assay type: in vivo, mice
Settings: mouse plasma
Experimental: At each time point, mice were euthanized and blood samples (500–800 μL) were collected and compiled into ethylenediaminetetraacetic acid (EDTA)-coated microtubes (1.6 mg of EDTA/sample) and centrifuged at 12 000 rpm for 5 min at 4 °C. Plasma samples were transferred into 1.5 mL tubes and stored at −80 °C until analysis.
Plasma calibrators were prepared by spiking corresponding stock solutions into a blank plasma sample.
Samples were vortexed at 1400 rpm for 10 min and then centrifuged at 13200g for 20 min at 10 °C. The supernatant was transferred into a 96-deep-well plate for drying under nitrogen gas flow (Evaporex EVX-96, Apricot Designs, Monrovia, CA) and redissolved in 200 μL of injection solvent (65% 10 mM ammonium formate + 0.05% formic acid, 35% acetonitrile + 0.05% formic acid) before MS/MS analysis.
Separation was performed at 55 °C on a Kinetex XB-C18 column, 100 × 2.1 mm, 1.7 μm particle size (Phenomenex; Torrance, CA); mobile phase of (A) 0.05% formic acid in 10 mM ammonium formate and (B) 0.05% formic acid in ACN, gradient 40% B for 1 min, linear gradient to reach 88% B after 5.3 min, shifted to 100% B for 1 min, and back to equilibrium condition of 40% B for 0.7 min; flow rate of 0.5 mL/min; total run time of 7 min. Sample injected volume was 1 μL and autosampler was set at 10 °C. Needle wash solution was MeOH/ACN/IPA/H2O (1:1:1:1 v/v/v/v). Flexible cube was set at a flow rate of 1 mL/min for 20 s.

CCCN(CCC)C(=O)/C=C/C=C/c1ccc2c(c1)OCO2 [Compound 23, (2E,4E)-5-(1,3-benzodioxol-5-yl)-N,N-dipropyl-2,4-pentadienamide]
mean plasma concn (1 mg/kg body weight ip): 60.6 ± 14.5 ng/mL
mean plasma concn (3 mg/kg body weight ip): 194.0 ± 50.2 ng/mL
mean plasma concn (10 mg/kg body weight ip): 593.0 ± 92.4 ng/mL
